Experimental data taken from US5618837A, “PDGF antagonists III” (ZymoGenetics, Inc., priority 1995, dated 1997).

Tests used:
[1] = tested on: PDGF-BB mitogenic activity on baboon smooth muscle cells; assay: Inhibition of PDGF-BB mitogenic activity on baboon smooth muscle cells ([3H] thymidine incorporation); assay type: cell-based
Description: Brefeldin A was analyzed for the ability to inhibit the mitogenic activity of PDGF on baboon smooth muscle cells. All mitogenesis assays performed on baboon vascular smooth muscle cells (BVSMCs) were done on primary cultures of cells between passages 13 and 20 in culture. The initial cultures were established from outgrowth of aortic tissue explants. Baboon smooth muscle cells were plated at approximately 20,000 cells per well, in DMEM supplemented with 10% fetal calf serum, into 24-well culture dishes. One day prior to use the culture media was removed, and 1 ml of Mito Media (Table 3) was added to each well to allow the cells to become quiescent. At the time of the experiment the cells were stimulated with PDGF-BB. […] 20X stock solutions were made for each of the PDGF concentrations by dilution in 10 mM acetic acid containing 0.25% albumin, and 50 μl of PDGF or dilution vehicle alone was added to the culture wells. To analyze the activity of Brefeldin A to neutralize PDGF-BB mitogenic activity, 1 ng/ml of PDGF was added to wells along with dilutions of Brefeldin A. The cells were incubated with the test samples for approximately 20 hours at 37° C. Fifty μl of a 20x stock solution was then added to each well to give a final concentration of 1 μCi/ml. The cells were incubated for 4 hours at 37° C., washed with PBS, then harvested with trypsin and counted for [^3 H] thymidine incorporation in a Wallac (Turku, Finland) Betaplate™ liquid scintillation counter. […] As part of this same experiment, the inhibitory potency of Brefeldin A was analyzed in the presence of heparin to determine if heparin is able to act in a combinatorial manner with Brefeldin A for inhibiting PDGF-BB mitogenic activity. Baboon smooth muscle cells were incubated in Brefeldin A with 1 ng/ml PDGF-BB in the presence of 0.5 U/ml of unfractionated heparin. The cells were pulse-labeled with [^3 H] thymidine as described above, and the level of [^3 H] thymidine incorporation was determined.

[2] = tested on: EGF-induced SRE-luciferase expression in SWISS3T3 cells; assay: SRE-luciferase reporter antagonist assay, EGF induction; assay type: cell-based; details: 4.5 ng/ml EGF; SWISS3T3/KZ67-G1-6 cells; 5 hours at 37° C.
Description: (§1) Initial characterization of Brefeldin A as a non-peptide PDGF antagonist was made possible through an SRE-Luciferase high through-put assay system which identifies substances that are able to block expression of a serum response element (SRE)-luciferase reporter gene expressed in SWISS3T3 cells. […] The degree of antagonist specificity can be determined by comparing the resultant signal for the three growth factors (PDGF, bFGF, and EGF). […]
(§2) Folowing induction, luciferase activity was measured using a Promega luciferase assay kit (E1500; Promega Corp., Madison, Wis.) according to the assay kit protocol. […] The amount of luminescence (relative light units, RLU) was determined following a 1 second mix and a 1-3 integration of signal. Basal (uninduced) luciferase signal was substracted from all measurements,and the luciferase signal induced by test samples was expressed as a percentage of the signal from the controls. […]

[3] = tested on: 125I-PDGF-BB binding to rat SMCs; assay: Inhibition of 125I-PDGF-BB binding to rat smooth muscle cells; details: 4° C.; for % Control Binding: negative control = 100, 90 min; for 125I PDGF-BB Bound (CPM): specific cpm, nonspecific subtracted, negative control 10006
Description: Brefeldin A was analyzed for the ability to inhibit ^125 I-PDGF-BB binding to monolayers of rat SMCs. SMCs were plated at approximately 20,000 cells/well in 24-well culture dishes. The cells were used for assay 2-7 days after plating. The test compound was diluted in binding media (500 ml Hams F-12 (Gibco BRL), 12 ml 1M Hepes pH 7.4, 5 ml 100X PSN, 1 gm rabbit serum albumin (Sigma Chemical Co., St. Louis, Mo.) to the concentrations shown in Table 2, then added to the SMCs (1 ml/well) in triplicate. To the wells was then added 50 μl of a ^125 I-PDGF-BB binding stock solution. Binding media alone was used as the negative control, and the addition of 200 ng/ml of PDGF-BB was used to determine nonspecific binding for ^125 I-PDGF-BB. The cells were incubated for approximately 11/2 hours at 4° C., then washed with binding media to remove unbound ligand. The cells were then incubated with extraction buffer (20 mM Tris-HCl pH 8.0, 100 mM NaCl, 1 mM EDTA, 0.5% sodium deoxycholate, 10 mM NaI, 1% bovine serum albumin), and the extracts were harvested and counted in a gamma counter. The data are presented as specific cpm bound for ^125 I-PDGF-BB. Nonspecific binding, determined by the addition of 200 ng/ml of unlabeled PDGF-BB, was 853 cpm, and has been subtracted from the data presented.

[4] = tested on: bFGF-induced SRE-luciferase expression in SWISS3T3 cells; assay: SRE-luciferase reporter antagonist assay, bFGF induction; assay type: cell-based; details: 2.0 ng/ml bFGF; SWISS3T3/KZ67-G1-6 cells; 5 hours at 37° C.
Description: as §1, §2

Molecule: CC1CCCC=CC2CC(O)CC2C(O)C=CC(=O)O1 (centres unmarked) [Brefeldin A, 1,6,7,8,9,11a,12,13,14,14a-Decahydro-1,13-dihydroxy-6-methyl-4H-cyclopent[f]oxacyclotridecin-4-one]
- PDGF-BB mitogenic activity inhibition (in words) ([1]; 1 ng/ml PDGF-BB): inhibited by Brefeldin A in a dose dependent fashion
- 3H Thymidine (CPM Incorporated), (+) 0.5 U/ml Heparin ([1]; 12.5 nM, 1 ng/ml PDGF-BB): 854 CPM
- 3H Thymidine (CPM Incorporated), (-) Heparin ([1]; 12.5 nM, 1 ng/ml PDGF-BB): 1293 CPM
- 3H Thymidine (CPM Incorporated), (+) 0.5 U/ml Heparin ([1]; 25 nM, 1 ng/ml PDGF-BB): 684 CPM
- 3H Thymidine (CPM Incorporated), (-) Heparin ([1]; 25 nM, 1 ng/ml PDGF-BB): 798 CPM
- 3H Thymidine (CPM Incorporated), (+) 0.5 U/ml Heparin ([1]; 50 nM, 1 ng/ml PDGF-BB): 44 CPM
- 3H Thymidine (CPM Incorporated), (-) Heparin ([1]; 50 nM, 1 ng/ml PDGF-BB): 36 CPM
- 3H Thymidine (CPM Incorporated), (+) 0.5 U/ml Heparin ([1]; 100 nM, 1 ng/ml PDGF-BB): 31 CPM
- 3H Thymidine (CPM Incorporated), (-) Heparin ([1]; 100 nM, 1 ng/ml PDGF-BB): 39 CPM
- IC50 ([1]; Papio anubis, 1 ng/ml PDGF-BB, baboon smooth muscle cells, read-out: ED50 for the inhibition of PDGF-BB mitogenic activity): ~25 nM
- doses inhibiting PDGF-BB mitogenic activity versus doses required to inhibit PDGF binding to rat SMCs ([1]; baboon SMC mitogenesis vs rat SMC binding, fold lower): 1000 fold
- inhibition of [3H] thymidine on addition of heparin (in words) ([1]; with 0.5 U/ml unfractionated heparin, 1 ng/ml PDGF-BB, versus Brefeldin A alone): further inhibition of [^3 H] thymidine above that achieved by Brefeldin A alone
- EGF EC50 [2]: No activity
- % Control Binding ([3]; 50 μM): 92%
- 125I PDGF-BB Bound (CPM) ([3]; 50 μM): 9199 CPM
- % Control Binding ([3]; 100 μM): 89%
- 125I PDGF-BB Bound (CPM) ([3]; 100 μM): 8879 CPM
- bFGF EC50 [4]: No activity

B1: PDGF-BB: platelet derived growth factor (protein, UniProt P01127 82-190, looked up)
Platelet-derived growth …: SLGSLTIAEPAMIAECKTRTEVFEISRRLIDRTNANFLVWPPCVEVQRCSGCCNNRNVQCRPTQVQLRPVQVRKIEIVRKKPIFKKATVTLEDHLACKCETVAAARPVT
- 3H Thymidine (CPM Incorporated), (-) Heparin ([1]; PDGF-BB standard curve, 0.062 ng/ml): 120 CPM
- 3H Thymidine (CPM Incorporated), (-) Heparin ([1]; PDGF-BB standard curve, 0.125 ng/ml): 226 CPM
- 3H Thymidine (CPM Incorporated), (-) Heparin ([1]; PDGF-BB standard curve, 0.25 ng/ml): 392 CPM
- 3H Thymidine (CPM Incorporated), (-) Heparin ([1]; PDGF-BB standard curve, 0.5 ng/ml, 0 ng/ml gives 74): 959 CPM
- 3H Thymidine (CPM Incorporated), (-) Heparin ([1]; PDGF-BB standard curve, 1 ng/ml): 1701 CPM
